Where “and” joins values, the source holds several entries; their conditions need not be identical. Equal entries are not always repeated. Structures can show the parent of a compound that is named as a salt. Where two headings read alike, the source gives them in different places. Marks after values point to notes of the source that are not given here. Peptide text beside a SMILES is read from it. * marks the point of attachment. Cbz = O=C(OCc1ccccc1)*; CH2F = FC*
How the values were obtained:
SARS-CoV-2^WK-521 = experiment: microbe, parasite or virus in culture; type: cell-based; parameters: EC95, individual assays / EC95, Average: unit: µM
[1] = Pharmacokinetic study in ICR mice; conditions: N = 2 to 3 male or female ICR mice; 5h, TKB125 i.v. 2 mg/kg
[2] = system: SARS-CoV-2^WK521 in HeLa-ACE2-TMPRSS2 cells; experiment: Antiviral assay, HeLa-ACE2-TMPRSS2 cells, WK521; type: cell-based
in vitro [3] = conditions: African green monkey, VeroE6 cells
in vitro [4] = conditions: human, HeLa-ACE2-TMPRSS2 cells
human cathepsin L = biological target: T1, human cathepsin L (Homo sapiens, UniProt P07711); experiment: Human cathepsin L inhibitor screening assay; type: biochemical; conditions: triplicate, listed as Cathepsin L inhibitor/FF-FMK
T1 construct: purchased abcam ab197012

SARS-CoV-2 M^pro/3CL^pro = SARS-CoV-2 M^pro/3CL^pro (Severe acute respiratory syndrome coronavirus 2, UniProt P0DTD1); type: biochemical; parameters: IC95, individual assays / IC95, Average: unit: µM
[5] = mouse, in vivo
VeroE6 cells = experiment: Intracellular concentrations of compounds (LC/MS), VeroE6 cells; conditions: Vero, calculated value per cell count
HeLa-ACE2-TMPRSS2 cells = experiment: Intracellular concentrations of compounds (LC/MS), HeLa-ACE2-TMPRSS2 cells; conditions: for intracellular compound, /1x10^6: calculated value per cell count; for intracellular compound, calculated value /20uL: from AUC against pmol standard curve
[6] = read-out: EC50, individual assays
[7] = read-out: SARS-CoV2 RNA VeroE6 cell-based assay EC50
[8] = Severe acute respiratory syndrome coronavirus 2, Vero C1008, read-out: SARS-CoV2 RNA VeroE6 cell-based assay EC50
[9] = Severe acute respiratory syndrome coronavirus 2, SARS-CoV-2^WK521, read-out: EC50, HeLa-ACE2-TMPRSS2
[10] = Severe acute respiratory syndrome coronavirus 2, read-out: EC50, HeLa-AEC2-TMPRSS2, individual assays, source data
[11] = Severe acute respiratory syndrome coronavirus 2, source data, read-out: EC50, HeLa-AEC2-TMPRSS2, Average
[12] = read-out: EC50, HeLa-AEC2-TMPRSS2, individual assays, source data
[13] = FRET, mean ± 1 S.D., read-out: SARS-CoV2 M^pro enzyme assay IC50
[14] = source data, M^pro enzyme assay
[15] = source data, M^pro enzyme assay, read-out: IC50, Average
[16] = Hela ACE2 TMPRSS2, drug 10, duplicates
[17] = Hela ACE2 TMPRSS2, drug 50, duplicates
[18] = Hela ACE2 TMPRSS2, drug 100, duplicates

T1 sequence (P07711 114-333): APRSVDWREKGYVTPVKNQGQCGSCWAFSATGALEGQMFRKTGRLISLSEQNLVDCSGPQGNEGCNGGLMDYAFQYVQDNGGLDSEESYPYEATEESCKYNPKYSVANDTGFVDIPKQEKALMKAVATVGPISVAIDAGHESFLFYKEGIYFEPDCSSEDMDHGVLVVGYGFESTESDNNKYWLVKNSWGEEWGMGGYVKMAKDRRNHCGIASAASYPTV

COc1cccc2[nH]c(C(=O)N[C@@H](CC(C)C)C(=O)N[C@@H](C[C@@H]3CCNC3=O)C(=O)c3nc4ccccc4s3)cc12 [Compound 5h, reference compound]
EC95, Average (SARS-CoV-2^WK-521): 9.4675 | EC95, individual assays (SARS-CoV-2^WK-521): 9.47 and 9.68 and 9.72 and 9 | SARS-CoV2 RNA VeroE6 cell-based assay EC95 (SARS-CoV-2^WK-521): 9470 ± 330 nM | EC50 (SARS-CoV-2^WK-521; [6]): 2700 nM and 3200 nM and 2000 nM and 2500 nM | EC50 (SARS-CoV-2^WK-521; [7]): 2600 ± 500 nM | T1/2 [1]: 0.27§ h

Cn1cnc(Cn2c(=O)[nH]/c(=N\c3cc4cn(C)nc4cc3Cl)n(Cc3cc(F)c(F)cc3F)c2=O)n1 [Ensitrelvir fumarate]
EC50 (SARS-CoV-2^WK-521; Severe acute respiratory syndrome coronavirus 2, Vero C1008, read-out: EC50, Average): 106 nM | EC50 (SARS-CoV-2^WK-521; [8]): 110 ± 50 nM | EC50 (SARS-CoV-2^WK-521; [6]): 45 nM and 127 nM and 156 nM and 98 nM | EC50 [2, 9]: 200 ± 30 nM | EC50 [2, 10]: 211 nM | EC50 [2, 11]: 204 nM | EC50 [2, 12]: 230 nM and 170 nM | CC50 at 3 days (in vitro [3]): > 100000 nM | CC50 at 3 days (in vitro [4]): > 100000 nM

O=C(NC(Cc1ccccc1)C(=O)NC(Cc1ccccc1)C(=O)CF)OCc1ccccc1 (stereo not drawn) [FF-FMK, reference compound] (Cbz-Phe-Phe-CH2F; configuration not given here)
% inhibition against human Cathepsin (human cathepsin L; 0.00106 µM): 39.8315% and 40.7898% and 42.7898% | % inhibition against human Cathepsin (human cathepsin L; 0.0053 µM): 58.2277% and 58.5989% and 59.5989% | % inhibition against human Cathepsin (human cathepsin L; 0.0266 µM): 77.0946% and 80.3037% and 81.3037% | % inhibition against human Cathepsin (human cathepsin L; 0.6 µM): 98.8112% and 98.8499% | % inhibition against human Cathepsin (human cathepsin L; 3.3 µM): 99.7789% and 99.782% | % inhibition against human Cathepsin (human cathepsin L; 16.6 µM): 99.9553% and 99.0234% and 100.023%

CC(C)C(=O)OC[C@H]1O[C@@H](n2ccc(NO)nc2=O)[C@H](O)[C@@H]1O [Molnupiravir]
EC50 (SARS-CoV-2^WK-521; Severe acute respiratory syndrome coronavirus 2, Vero C1008, read-out: EC50, individual assays): 270 nM | EC50 (SARS-CoV-2^WK-521; [8]): 350 ± 60 nM | EC50 (SARS-CoV-2^WK-521; [6]): 330 nM and 380 nM and 420 nM | EC50 [2, 9]: 320 ± 70 nM | EC50 [2, 10]: 270 nM | EC50 [2, 11]: 323 nM | EC50 [2, 12]: 300 nM and 400 nM | CC50 at 3 days (in vitro [3]): > 100000 nM | CC50 at 3 days (in vitro [4]): > 100000 nM

COc1ccc(F)c2[nH]c(C(=O)N[C@@H](CC(C)C)C(=O)N[C@@H](C[C@@H]3CCNC3=O)C(=O)c3nc4ccccc4s3)cc12 [TKB125]
SARS-CoV2 M^pro enzyme assay IC95 (SARS-CoV-2 M^pro/3CL^pro; FRET, mean ± 1 S.D.): 1020 ± 400 nM | IC50 (SARS-CoV-2 M^pro/3CL^pro; [13]): 34 ± 6 nM | IC95, Average (SARS-CoV-2 M^pro/3CL^pro; [14]): 1.022 | IC95, individual assays (SARS-CoV-2 M^pro/3CL^pro; [14]): 0.8844 and 1.476 and 0.7048 | IC50 (SARS-CoV-2 M^pro/3CL^pro; [15]): 34 nM | IC50 (SARS-CoV-2 M^pro/3CL^pro; source data, M^pro enzyme assay, read-out: IC50, individual assays): 28.2 nM and 39.6 nM and 34.1 nM | EC95, Average (SARS-CoV-2^WK-521): 8.3875 | EC95, individual assays (SARS-CoV-2^WK-521): 8.28 and 8.91 and 7.98 and 8.38 | SARS-CoV2 RNA VeroE6 cell-based assay EC95 (SARS-CoV-2^WK-521): 8390 ± 390 nM | EC50 (SARS-CoV-2^WK-521; read-out: EC50, Average): 1820 nM | EC50 (SARS-CoV-2^WK-521; [6]): 1700 nM and 1510 nM and 3160 nM and 900 nM | EC50 (SARS-CoV-2^WK-521; [7]): 1820 ± 960 nM | T1/2 [1]: 0.76 § h

COc1ccc(F)c2[nH]c(C(=O)N[C@@H](CC(C)C)C(=O)N[C@@H](C[C@@H]3CCNC3=O)C(=O)c3nc4c(F)cccc4s3)cc12 [TKB198]
SARS-CoV2 M^pro enzyme assay IC95 (SARS-CoV-2 M^pro/3CL^pro; FRET, mean ± 1 S.D.): 750 ± 270 nM | IC50 (SARS-CoV-2 M^pro/3CL^pro; [13]): 23 ± 13 nM | IC95, Average (SARS-CoV-2 M^pro/3CL^pro; [14]): 0.7533 | IC95, individual assays (SARS-CoV-2 M^pro/3CL^pro; source data, M^pro enzyme assay, listed as TKB0198): 1.0700 and 0.6000 and 0.5900 | IC50 (SARS-CoV-2 M^pro/3CL^pro; source data, M^pro enzyme assay, listed as TKB0198, read-out: IC50, individual assays): 36 nM and 10.1 nM | IC50 (SARS-CoV-2 M^pro/3CL^pro; [15]): 23 nM | EC95, Average (SARS-CoV-2^WK-521): 0.834 | EC95, individual assays (SARS-CoV-2^WK-521): 0.856 and 0.86 and 0.8 and 0.82 | Improvement of EC50 and EC95 values relative to TKB125 (SARS-CoV-2^WK-521): about 10 fold | SARS-CoV2 RNA VeroE6 cell-based assay EC95 (SARS-CoV-2^WK-521): 830 ± 30 nM | EC50 (SARS-CoV-2^WK-521; read-out: EC50, Average): 272 nM | EC50 (SARS-CoV-2^WK-521; [6]): 130 nM and 300 nM and 400 nM and 260 nM | EC50 (SARS-CoV-2^WK-521; [7]): 270 ± 110 nM | Cmax [5]: 85 ng/mL | Oral F ([5]; po): 1.98§ % | T1/2 [1]: 0.83 § h

CC(C)(C)C(NC(=O)C(F)(F)F)C(=O)N1CC2C(C1C(=O)NC(CC1CCNC1=O)C(=O)c1nc3c(F)cccc3s1)C2(C)C (stereo not shown) [TKB0245A]
intracellular compound, /1x10^6 (VeroE6 cells; drug 10, duplicates): 0.09213 /1x10^6 and 0.09745 /1x10^6 | intracellular compound, /1x10^6 (VeroE6 cells; drug 100, duplicates): 0.9321 /1x10^6 and 0.7861 /1x10^6 | intracellular compound, pmol(total) (HeLa-ACE2-TMPRSS2 cells; [16]): 0.636 pmol and 0.5701 pmol | intracellular compound, /1x10^6 (HeLa-ACE2-TMPRSS2 cells; [16]): 0.2544 /1x10^6 and 0.228 /1x10^6 | intracellular compound, calculated value /20uL (HeLa-ACE2-TMPRSS2 cells; [16]): 0.59 /20uL and 0.50 /20uL | intracellular compound, pmol(total) (HeLa-ACE2-TMPRSS2 cells; [17]): 4.585 pmol and 3.749 pmol | intracellular compound, /1x10^6 (HeLa-ACE2-TMPRSS2 cells; [17]): 1.834 /1x10^6 and 1.4997 /1x10^6 | intracellular compound, calculated value /20uL (HeLa-ACE2-TMPRSS2 cells; [17]): 4.77 /20uL and 3.30 /20uL | intracellular compound, pmol(total) (HeLa-ACE2-TMPRSS2 cells; [18]): 8.312 pmol and 9.388 pmol | intracellular compound, /1x10^6 (HeLa-ACE2-TMPRSS2 cells; [18]): 3.325 /1x10^6 and 3.755 /1x10^6 | intracellular compound, calculated value /20uL (HeLa-ACE2-TMPRSS2 cells; [18]): 6.65 /20uL and 9.39 /20uL

Source: PMC9958325 (Nature Communications, 2023)
